# Reference: PubChem BioAssay (NCI)
#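 Five compound concentrations were applied to cells in 96-well plates for 48 hours; endpoints were derived by simple linear interpolation of the resulting dose-response curve. Definition used: TGI = concentration required for complete inhibition of growth.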
# Columns and labels:
# Assay in all cases: NCI anticancer screen, dose series, 48 h
# UO-31 renal = tested on: UO-31 renal
# HT29 colon = tested on: HT29 colon
# MOLT-4 leukemia = tested on: MOLT-4 leukemia
# SF-268 CNS = tested on: SF-268 CNS
# BT-549 breast = tested on: BT-549 breast
# SNB-19 CNS = tested on: SNB-19 CNS
# MCF7 breast = tested on: MCF7 breast
# M14 melanoma = tested on: M14 melanoma
# RXF 393 renal = tested on: RXF 393 renal
# SK-MEL-2 melanoma = tested on: SK-MEL-2 melanoma
# HS 578T breast = tested on: HS 578T breast
# NCI-H460 lung = tested on: NCI-H460 lung
# U251 CNS = tested on: U251 CNS
# OVCAR-8 ovarian = tested on: OVCAR-8 ovarian
# K-562 leukemia = tested on: K-562 leukemia
# NCI-H522 lung = tested on: NCI-H522 lung
# NCI-H226 lung = tested on: NCI-H226 lung
# SNB-75 CNS = tested on: SNB-75 CNS
# ACHN renal = tested on: ACHN renal
# MALME-3M melanoma = tested on: MALME-3M melanoma
# CCRF-CEM leukemia = tested on: CCRF-CEM leukemia
# T-47D breast = tested on: T-47D breast
# COLO 205 colon = tested on: COLO 205 colon
# LOX IMVI melanoma = tested on: LOX IMVI melanoma
# IGROV1 ovarian = tested on: IGROV1 ovarian
# TK-10 renal = tested on: TK-10 renal
# MDA-N = tested on: MDA-N
# OVCAR-5 ovarian = tested on: OVCAR-5 ovarian
# UACC-257 melanoma = tested on: UACC-257 melanoma
# HOP-92 NSCLC = tested on: HOP-92 NSCLC
# SN12C renal = tested on: SN12C renal
# CAKI-1 renal = tested on: CAKI-1 renal
# SF-295 CNS = tested on: SF-295 CNS
# RPMI-8226 leukemia = tested on: RPMI-8226 leukemia
# UACC-62 melanoma = tested on: UACC-62 melanoma
# OVCAR-3 ovarian = tested on: OVCAR-3 ovarian
# SK-MEL-5 melanoma = tested on: SK-MEL-5 melanoma
# EKVX NSCLC = tested on: EKVX NSCLC
# DU-145 prostate = tested on: DU-145 prostate
# PC-3 prostate = tested on: PC-3 prostate
# MDA-MB-231 breast = tested on: MDA-MB-231 breast
# HL-60(TB) leukemia = tested on: HL-60(TB) leukemia
# A549 NSCLC = tested on: A549 NSCLC
# MDA-MB-435 = tested on: MDA-MB-435
# HCT-15 colon = tested on: HCT-15 colon
# 786-0 renal = tested on: 786-0 renal
# NCI-H23 lung = tested on: NCI-H23 lung
# SK-MEL-28 melanoma = tested on: SK-MEL-28 melanoma
# HCT-116 colon = tested on: HCT-116 colon
# NCI/ADR-RES ovarian = tested on: NCI/ADR-RES ovarian
# OVCAR-4 ovarian = tested on: OVCAR-4 ovarian
# HCC-2998 colon = tested on: HCC-2998 colon
# SW-620 colon = tested on: SW-620 colon
# SR leukemia = tested on: SR leukemia
# A498 renal = tested on: A498 renal
# KM12 colon = tested on: KM12 colon
# SK-OV-3 ovarian = tested on: SK-OV-3 ovarian
# HOP-62 NSCLC = tested on: HOP-62 NSCLC
compound,measurement,setting,value
CC(C)NC(=O)OCc1c(COC(=O)NC(C)C)n(C)c2c1ccc1ccsc12,TGI,UO-31 renal,26.6 µM
same,TGI,HT29 colon,38.5 µM
same,TGI,MOLT-4 leukemia,12.4 µM
same,TGI,SF-268 CNS,25.4 µM
same,TGI,BT-549 breast,28.4 µM
same,TGI,SNB-19 CNS,52.2 µM
same,TGI,MCF7 breast,> 53.1 µM
same,TGI,M14 melanoma,22.5 µM
same,TGI,RXF 393 renal,21.1 µM
same,TGI,SK-MEL-2 melanoma,31.8 µM
same,TGI,HS 578T breast,48.5 µM
same,TGI,NCI-H460 lung,21.2 µM
same,TGI,U251 CNS,35.8 µM
same,TGI,OVCAR-8 ovarian,40.5 µM
same,TGI,K-562 leukemia,54.8 µM
same,TGI,NCI-H522 lung,21.5 µM
same,TGI,NCI-H226 lung,28.7 µM
same,TGI,SNB-75 CNS,26.9 µM
same,TGI,ACHN renal,14.2 µM
same,TGI,MALME-3M melanoma,18.3 µM
same,TGI,CCRF-CEM leukemia,7.31 µM
same,TGI,T-47D breast,> 100 µM
same,TGI,COLO 205 colon,26 µM
same,TGI,LOX IMVI melanoma,30 µM
same,TGI,IGROV1 ovarian,53.3 µM
same,TGI,TK-10 renal,> 94.4 µM
same,TGI,MDA-N,26.1 µM
same,TGI,OVCAR-5 ovarian,54.1 µM
same,TGI,UACC-257 melanoma,31.7 µM
same,TGI,HOP-92 NSCLC,45.4 µM
same,TGI,SN12C renal,35.2 µM
same,TGI,CAKI-1 renal,13.9 µM
same,TGI,SF-295 CNS,> 81.4 µM
same,TGI,RPMI-8226 leukemia,20.3 µM
same,TGI,UACC-62 melanoma,22.9 µM
same,TGI,OVCAR-3 ovarian,40 µM
same,TGI,SK-MEL-5 melanoma,22.7 µM
same,TGI,EKVX NSCLC,48.1 µM
same,TGI,DU-145 prostate,27.4 µM
same,TGI,PC-3 prostate,39.9 µM
same,TGI,MDA-MB-231 breast,38.4 µM
same,TGI,HL-60(TB) leukemia,9.93 µM
same,TGI,A549 NSCLC,47.4 µM
same,TGI,MDA-MB-435,25.3 µM
same,TGI,HCT-15 colon,28.1 µM
same,TGI,786-0 renal,23.4 µM
same,TGI,NCI-H23 lung,21.8 µM
same,TGI,SK-MEL-28 melanoma,30 µM
same,TGI,HCT-116 colon,31.8 µM
same,TGI,NCI/ADR-RES ovarian,31.4 µM
same,TGI,OVCAR-4 ovarian,23.7 µM
same,TGI,HCC-2998 colon,28.6 µM
same,TGI,SW-620 colon,> 45 µM
same,TGI,SR leukemia,8.45 µM
same,TGI,A498 renal,35.3 µM
same,TGI,KM12 colon,38.3 µM
same,TGI,SK-OV-3 ovarian,69.6 µM
same,TGI,HOP-62 NSCLC,55.9 µM
